Results reported in US9133104B2 (Chroma Therapeutics Ltd., priority 2005, dated 2015).

Tests used:
[1] = target: T1, histone deacetylase activity (HeLa nuclear extract); assay: HDAC fluorescent activity assay (Biomol Fluor de Lys), HeLa nuclear extract; type: biochemical; settings: Fluor de Lys substrate, IC50 range
T1 construct: Histone deacetylase activity from crude nuclear extract derived from HeLa cells was used for screening
How it was run: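 Crude HeLa nuclear extract (20 mM Hepes, 100 mM KCl, 0.2 mM EDTA, 0.5 mM DTT, 0.2 mM PMSF, 20% glycerol) incubated with acetyl-lysine Fluor de Lys substrate ± inhibitor; developer generates fluorophore. Background-subtracted % of vehicle control; IC50 from eight-point variable-slope sigmoidal fit.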

Hela cancer cell line = assay: Cell inhibition assay (SRB cell viability), Hela; type: cell-based; settings: 72 h, Hela cells, IC50 range
How it was run: (§1)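 Log-phase Hela, U937 and HUT cells were seeded at 1000 cells/well, grown 24 h, then exposed to compound (20 uM final) for 72 h. Viability was read by sulphorhodamine B staining and expressed as % inhibition relative to DMSO control. IC50 values came from sigmoidal variable-slope fits of eight concentrations.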

U937 cancer cell line = assay: Cell inhibition assay (SRB cell viability), U937; type: cell-based; settings: Homo sapiens, U-937, U937 cells, 72 h, IC50 range
How it was run: as §1

HUT cancer cell line = assay: Cell inhibition assay (SRB cell viability), HUT; type: cell-based; settings: HUT cells, 72 h, IC50 range
How it was run: as §1

Row | SMILES | IC50 [1] | IC50 (Hela cancer cell line; Homo sapiens, HeLa) | IC50 (U937 cancer cell line) | IC50 (HUT cancer cell line) | IC50 (Hela cancer cell line)
1 | CCOC(=O)[C@H](Cc1ccccc1)NC(=O)[C@@H]1Cc2c([nH]c3ccccc23)CN1C(=O)CCCCCCC(=O)NO [Compound 7, (S)-2-{[(S)-2-(7-Hydroxycarbamoyl-heptanoyl)-2,3,4,9-tetrahydro-1H-beta-carboline-3-carbonyl]-amino}-3-phenyl-propionic acid ethyl ester] | 101 to 1000 nM | > 3300 nM | 330 to 3300 nM | 330 to 3300 nM | –
2 | O=C(CCCCCCC(=O)Nc1ccc(C(=O)N[C@H](C(=O)O)c2ccccc2)cc1)NO [Compound 18, (S)-[4-(7-Hydroxycarbamoyl-heptanoylamino)-benzoylamino]-phenyl-acetic acid] | 101 to 1000 nM | > 3300 nM | > 3300 nM | > 3300 nM | –
3 | O=C(CCCCCCC(=O)Nc1ccc(CN[C@H](C(=O)OC2CCCC2)c2ccccc2)cc1)NO [Compound 20, (S)-[4-(7-Hydroxycarbamoyl-heptanoylamino)-benzylamino]-phenyl-acetic acid cyclopentyl ester] | 101 to 1000 nM | 330 to 3300 nM | < 330 nM | 330 to 3300 nM | –
4 | CC(C)(C)OC(=O)[C@H](Cc1ccccc1)NCc1cncc(NC(=O)CCCCCCC(=O)NO)c1 [Compound 68, (S)-2-{[5-(7-Hydroxycarbamoyl-heptanoylamino)-pyridin-3-ylmethyl]-amino}-3-phenyl-propionic acid tert-butyl ester] | 101 to 1000 nM | > 3300 nM | 330 to 3300 nM | 330 to 3300 nM | –
5 | O=C(CCCCCCC(=O)Nc1ccccc1CN[C@H](C(=O)OC1CCCC1)c1ccccc1)NO [Compound 40, (S)-[2-(7-Hydroxycarbamoyl-heptanoylamino)-benzylamino]-phenyl-acetic acid cyclopentyl ester] | > 1000 nM | > 3300 nM | > 3300 nM | > 3300 nM | –
6 | COc1ccc2[nH]c3c(c2c1)CCN(C(=O)CCCCCCC(=O)NO)C3C(=O)N[C@H](C(=O)OC1CCCC1)c1ccccc1 (stereo partly drawn) [Compound 11, (S)-{[2-(7-Hydroxycarbamoyl-heptanoyl)-6-methoxy-2,3,4,9-tetrahydro-1H-beta-carboline-1-carbonyl]-amino}-phenyl-acetic acid cyclopentyl ester] | 101 to 1000 nM | – | 330 to 3300 nM | 330 to 3300 nM | 330 to 3300 nM
7 | O=C(CCCCCCC(=O)Nc1ccc(S(=O)(=O)N[C@H](C(=O)OC2CCCC2)c2ccccc2)cc1)NO [Compound 22, (S)-[4-(7-Hydroxycarbamoyl-heptanoylamino)-benzenesulfonylamino]-phenyl-acetic acid cyclopentyl ester] | 101 to 1000 nM | 330 to 3300 nM | 330 to 3300 nM | 330 to 3300 nM | –
8 | O=C(CCCCCCC(=O)Nc1cccc(CN[C@@H](CCc2ccccc2)C(=O)OC2CCCC2)c1)NO [Compound 31, (S)-2-[3-(7-Hydroxycarbamoyl-heptanoylamino)-benzylamino]-4-phenyl-butyric acid cyclopentyl ester] | 101 to 1000 nM | 330 to 3300 nM | < 330 nM | 330 to 3300 nM | –
9 | O=C(CCCCCCC(=O)N1CCCC1C(=O)N[C@@H](Cc1ccccc1)C(=O)OC1CCCC1)NO (stereo partly drawn) [Compound 56, (S)-2-{[1-(7-Hydroxycarbamoyl-heptanoyl)-pyrrolidine-2-carbonyl]-amino}-3-phenyl-propionic acid cyclopentyl ester] | > 1000 nM | > 3300 nM | > 3300 nM | > 3300 nM | –
10 | CCOC(=O)[C@H](CC(C)C)NC(=O)[C@@H]1Cc2ccccc2CN1C(=O)CCCCCCC(=O)NO [Compound 50, (S)-2-{[(S)-2-(7-Hydroxycarbamoyl-heptanoyl)-1,2,3,4-tetrahydro-isoquinoline-3-carbonyl]-amino}-4-methyl-pentanoic acid ethyl ester] | > 1000 nM | > 3300 nM | 330 to 3300 nM | 330 to 3300 nM | –
